# From patent US20070191447A1, “Novel heterocyclic compound” (priority 2004, published 2007)
# Molecular target: T1, benzodiazepine ω3 receptor (Rattus norvegicus, UniProt P16257)
# T1 construct: The kidney membrane fraction (ω3) was prepared as follows; from tissue; host or cells: rat (SD, male) kidney membrane fraction
# Experiment: Benzodiazepine ω3 receptor binding inhibition test ([3H]-PK-11195, rat kidney membrane fraction)
# Conditions: 1 h, compound final concentration 100 nM, [3H]-PK-11195 1 nM, 4° C., one hour, read-out: [3H]-PK-11195 Binding inhibitory rate (%)
# Method: Experiment 1: Benzodiazepine ω3 receptor and benzodiazepine ω1, ω2 receptors binding inhibition test
# The benzodiazepine ω3 receptor binding assay was carried out according to the method disclosed in the literature (Mol. Phamacol., 34, 800-805, 1988), and the benzodiazepine ω1, ω2 receptor binding assays were carried out according to the method disclosed in the literature (Neurophamacol., 34, 1169-1175, 1995), respectively.
# SD male rats (Japan Charles River) were decapitated, and the kidney and the cerebral cortex were collected. The kidney membrane fraction (ω3) was prepared as follows. The kidney was homogenized with ice-cold 50 mM Tris-HCl buffer (pH 7.6) of about 5-times volume of the wet tissue weight, and the homogenate was centrifuged at 4° C. for 10 minutes at 20,000 g. The pellets thus obtained were suspended again, and centrifuged at 4° C. for 10 minutes at 20,000 g. These resuspension and centrifugation procedures were repeated once more, and the obtained pellets were diluted in a 50 mM Tris-HCl buffer (pH 7.6) into a concentration of 0.1 mg of protein per one assay of the receptor binding test. The cerebral cortex membrane fraction (ω1 and ω2) was prepared as follows. The cerebral cortex was homogenized with ice-cold potassium phosphate buffer (200 mM KCl, 20 mM KOH, 20 mM KH2PO4, pH 7.4) of 15-times volume of the wet tissue weight, and the homogenate was centrifuged at 4° C. for 15 minutes at 32,500 g. The obtained pellets were suspended again and centrifuged at 4° C. for 15 minutes at 32,500 g. These resuspension and centrifugation procedures were repeated once more, and the obtained pellets were diluted in the potassium phosphate buffer into a concentration of 0.1 mg of protein per one assay of the receptor binding test. Both of these membrane fractions were frozen and stored at −80° C.
# As the [^3H]-labeled ligand, [^3H]-PK-11195 (for ω3; PerkinElmer) or [^3H]-Ro-15-1788 [Flumazenil] (for ω1 and ω2; PerkinElmer) was used. […] In order to obtain total binding in the binding inhibition assay, a 0.5% DMSO, the [^3H] labeled ligand (final concentration: 1 nM), and the membrane fraction were mixed (total volume: 1 mL), and the mixture was incubated at 4° C. (for ω3) or at 25° C. (for ω1 and ω2) for one hour. In order to obtain non-specific binding, the non-labeled ligand (final concentration: 10 μM) was added instead of 0.5% DMSO, and in order to study the binding affinity of the present compounds, a solution of the present compound (final concentration: 100 nM for ω3, or 10 μM for ω1 and ω2) in DMSO was added. After the one-hour incubation, the labeled ligand bound to the receptor was collected by filtration with suction through a 0.3% polyethyleneimine-treated GF/B filter using a cell harvester, and washed with ice-cold 50 mM Tris-HCl buffer (for ω3) or ice-cold potassium phosphate buffer (for ω1 and ω2) once. The radioactivity on the GF/B filter was measured with liquid scintillation counter (manufactured by Packard, Tri Carb 2700TR). The results were expressed by the inhibition rate (%) against the binding to the labeled ligand.
row,Structure (SMILES),inhibition at 0.1 µM [%]
1,CN(C(=O)Cn1c(=O)sc2ccc(Br)cc21)c1ccccc1 [Example 55],98
2,CN(C(=O)Cn1c(=O)sc2c(Br)cccc21)c1ccccc1 [Example 56],99
3,CCCN(CCC)C(=O)Cn1c(=O)n(C)c2ccc(-c3ccccc3)cc21 [Example 60],100
4,"CC(C(=O)N(C)c1ccccc1)n1c(=O)n2c3c(cc(Br)cc31)CCC2 (stereo not drawn) [Example 137, 2-(8-Bromo-2-oxo-5,6-dihydro-4H-imidazo[4,5,1-ij]quinolin-1(2H)-yl)-N-methyl-N-phenylpropanamide]",83
5,"CN(C(=O)C1CCc2cccc3c2n1c(=O)n3C)c1ccccc1 (stereo not drawn) [Example 142, N,1-Dimethyl-2-oxo-N-phenyl-1,2,5,6-tetrahydro-4H-imidazo[4,5,1-ij]quinoline-4-carboxamide]",83
6,"CN(C(=O)Cn1c(=O)oc2ccc(C(=O)c3ccccc3)cc21)c1ccccc1 [Example 373, 2-(5-Benzoyl-2-oxo-1,3-benzoxazol-3(2H) -yl)-N-methyl-N-phenyl-acetamide]",89
7,"CC(=O)c1cc(Br)cc2c1oc(=O)n2CC(=O)N(C)c1ccccc1 [Example 389, 2-(7-Acetyl-5-bromo-2-oxo-1,3-benzoxazol-3(2H)-yl)-N-methyl-N-phenyl-acetamide]",97
8,"CN(C(=O)Cn1c(=O)sc2ccc(-c3ccncc3)cc21)c1ccccc1 [Example 395, N-Methyl-2-(2-oxo-5-pyridin-4-yl-1,3-benzothiazol-3(2H)-yl)-N-phenyl-acetamide]",95

# The next lines start with the values.
row,inhibition at 0.1 µM [%],Structure (SMILES)
1,100,CN(C(=O)Cn1c(=O)n(C)c2cc(-c3ccccc3)ccc21)c1ccccc1 [Example 61]
2,93,"CN(C(=O)Cn1c(=O)n2c3c(cccc31)CCC2)c1ccccc1 [Example 113, N-Methyl-2-(2-oxo-5,6-dihydro-4H-imidazo[4,5,1-ij]quinolin-1(2H)-yl)-N-phenylacetamide]"
3,95,"CN(C(=O)Cn1c(=O)n2c3c(cc(Oc4ccccc4)cc31)CCC2)c1ccccc1 [Example 136, N-Methyl-2-(2-oxo-8-phenoxy-5,6-dihydro-4H-imidazo[4,5,1-ij]quinolin-1(2H)-yl)-N-phenylacetamide]"
4,88,"CC(C)n1c(=O)n(CC(=O)N(C)c2ccccc2)c2cc(-c3ccccc3)ccc21 [Example 401, 2-(3-Isopropyl-2-oxo-6-phenyl-2,3-dihydro-1H-benzimidazol-1-yl)-N-methyl-N-phenylacetamide]"
